Test results published in ChEMBL document CHEMBL4507291 (2021).

Key:
[1] = target: T1, cGMP-dependent protein kinase 2 (Homo sapiens) (UniProt Q13237); assay: PRKG2 (PKG2) Kinase screen; settings: Compound concentration 1.0 uM
T1 sequence (whole entry): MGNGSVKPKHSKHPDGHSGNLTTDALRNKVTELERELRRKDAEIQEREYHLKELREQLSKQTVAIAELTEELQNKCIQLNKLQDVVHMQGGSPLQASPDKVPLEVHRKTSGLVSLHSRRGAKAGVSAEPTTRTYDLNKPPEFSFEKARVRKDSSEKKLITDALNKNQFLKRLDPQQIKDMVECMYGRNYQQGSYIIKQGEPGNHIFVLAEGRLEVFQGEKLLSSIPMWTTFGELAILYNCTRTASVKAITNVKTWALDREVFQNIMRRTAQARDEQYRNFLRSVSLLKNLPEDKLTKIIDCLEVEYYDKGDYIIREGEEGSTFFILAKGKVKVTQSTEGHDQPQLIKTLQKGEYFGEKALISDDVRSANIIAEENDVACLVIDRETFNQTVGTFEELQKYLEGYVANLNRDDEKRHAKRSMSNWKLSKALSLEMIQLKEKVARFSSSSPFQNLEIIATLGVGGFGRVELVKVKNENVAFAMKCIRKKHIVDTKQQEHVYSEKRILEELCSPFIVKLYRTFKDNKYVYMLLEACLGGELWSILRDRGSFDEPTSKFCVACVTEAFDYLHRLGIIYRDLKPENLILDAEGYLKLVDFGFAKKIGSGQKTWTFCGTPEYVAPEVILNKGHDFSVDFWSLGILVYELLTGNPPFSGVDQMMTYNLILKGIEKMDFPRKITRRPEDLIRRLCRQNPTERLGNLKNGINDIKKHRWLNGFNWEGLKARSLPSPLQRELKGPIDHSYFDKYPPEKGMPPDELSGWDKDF

[2] = target: Mitogen-activated protein kinase 1 (Homo sapiens) (UniProt P28482); assay: MAPK1 (ERK2) Kinase screen; settings: Compound concentration 1.0 uM
[3] = target: B2 bradykinin receptor (Homo sapiens) (UniProt P30411); settings: Compound concentration 10.0 uM
[4] = target: Glycogen synthase kinase-3 beta (Homo sapiens) (UniProt P49841); assay: GSK3B (GSK3 beta) Kinase screen; settings: Compound concentration 1.0 uM
[5] = target: Progesterone receptor (Homo sapiens) (UniProt P06401); assay: Inhibition of Progesterone PR-B at 10 µM in the Eurofins-Panlabs radioligand binding assay (Eurofins_assay_268020); parameters: ligand concentration 1.4 nM; settings: Compound concentration 10.0 uM
[6] = target: T2, Mitogen-activated protein kinase kinase kinase 3 (Homo sapiens) (UniProt Q99759); assay: MAP3K3 (MEKK3) Kinase screen; settings: Compound concentration 1.0 uM
T2 sequence (whole entry): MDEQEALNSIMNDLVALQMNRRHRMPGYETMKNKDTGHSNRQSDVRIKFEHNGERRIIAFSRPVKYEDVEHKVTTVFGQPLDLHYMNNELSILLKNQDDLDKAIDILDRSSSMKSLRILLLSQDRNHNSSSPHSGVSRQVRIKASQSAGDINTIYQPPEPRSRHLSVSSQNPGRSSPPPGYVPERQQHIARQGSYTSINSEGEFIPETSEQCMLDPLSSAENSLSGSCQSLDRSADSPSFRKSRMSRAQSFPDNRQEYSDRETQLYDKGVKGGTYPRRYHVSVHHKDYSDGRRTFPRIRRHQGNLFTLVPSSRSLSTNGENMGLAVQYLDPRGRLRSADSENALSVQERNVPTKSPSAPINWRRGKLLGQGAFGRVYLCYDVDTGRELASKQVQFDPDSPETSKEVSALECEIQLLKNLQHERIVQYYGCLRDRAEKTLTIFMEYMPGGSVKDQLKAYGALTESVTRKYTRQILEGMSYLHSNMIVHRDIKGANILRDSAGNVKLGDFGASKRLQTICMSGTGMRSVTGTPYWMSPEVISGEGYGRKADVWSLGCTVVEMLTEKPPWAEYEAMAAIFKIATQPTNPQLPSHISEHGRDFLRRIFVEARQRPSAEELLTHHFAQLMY

[7] = target: SRSF protein kinase 3 (Homo sapiens) (UniProt Q9UPE1); assay: STK23 (MSSK1) Kinase screen; settings: Compound concentration 1.0 uM
[8] = target: Prostaglandin E2 receptor EP3 subtype (Homo sapiens) (UniProt P43115); assay: Prostanoid EP3 Eurofins-Panlabs radioligand binding assay; parameters: ligand concentration 0.5 nM, non-specific ligand with concentration 10 µM Prostaglandin EŽ2 (PGE2), incubation time 60 min, incubation temperature 25 °C; settings: Compound concentration 10.0 uM
[9] = target: T3, Ephrin type-B receptor 4 (Homo sapiens) (UniProt P54760); assay: EPHB4 Kinase screen; settings: Compound concentration 1.0 uM
T3 sequence (whole entry): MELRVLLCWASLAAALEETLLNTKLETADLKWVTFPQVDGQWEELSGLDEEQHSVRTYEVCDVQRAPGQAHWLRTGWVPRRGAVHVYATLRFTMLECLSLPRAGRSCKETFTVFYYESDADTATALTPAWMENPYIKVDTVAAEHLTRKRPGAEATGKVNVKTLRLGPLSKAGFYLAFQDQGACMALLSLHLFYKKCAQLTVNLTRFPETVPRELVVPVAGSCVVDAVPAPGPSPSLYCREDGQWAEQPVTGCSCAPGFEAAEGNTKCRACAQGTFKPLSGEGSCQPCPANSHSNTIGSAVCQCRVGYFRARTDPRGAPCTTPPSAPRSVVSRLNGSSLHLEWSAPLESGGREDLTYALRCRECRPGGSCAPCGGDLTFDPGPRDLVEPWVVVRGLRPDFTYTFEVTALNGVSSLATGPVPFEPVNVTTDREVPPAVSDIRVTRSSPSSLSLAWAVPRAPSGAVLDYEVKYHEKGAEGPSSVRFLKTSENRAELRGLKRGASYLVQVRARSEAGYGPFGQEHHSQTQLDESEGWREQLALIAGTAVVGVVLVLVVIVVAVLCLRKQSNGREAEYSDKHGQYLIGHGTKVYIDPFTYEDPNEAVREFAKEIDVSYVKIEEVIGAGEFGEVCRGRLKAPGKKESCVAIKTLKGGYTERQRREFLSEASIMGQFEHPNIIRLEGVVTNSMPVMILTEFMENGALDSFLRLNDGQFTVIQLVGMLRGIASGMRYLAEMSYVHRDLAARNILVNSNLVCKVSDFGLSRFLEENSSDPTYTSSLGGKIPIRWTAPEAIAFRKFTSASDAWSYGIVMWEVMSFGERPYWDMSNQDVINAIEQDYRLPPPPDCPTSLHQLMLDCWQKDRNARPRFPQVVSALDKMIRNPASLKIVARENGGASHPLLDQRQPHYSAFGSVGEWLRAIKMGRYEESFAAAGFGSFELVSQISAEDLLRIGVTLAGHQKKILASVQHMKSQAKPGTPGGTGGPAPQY

[10] = target: Protein kinase C alpha type (Homo sapiens) (UniProt P17252); assay: PRKCA (PKC alpha) Kinase screen; settings: Compound concentration 1.0 uM
[11] = target: Substance-K receptor (Homo sapiens) (UniProt P21452); assay: Inhibition of Tachykinin NK2 at 10 µM in the Eurofins-Panlabs radioligand binding assay (Eurofins_assay_255600); parameters: ligand concentration 0.5 nM; settings: Compound concentration 10.0 uM
[12] = target: Mitogen-activated protein kinase kinase kinase kinase 4 (Homo sapiens) (UniProt O95819); assay: MAP4K4 (HGK) Kinase screen; settings: Compound concentration 1.0 uM
[13] = target: Aurora kinase B (Homo sapiens) (UniProt Q96GD4); assay: AURKB (Aurora B) Kinase screen; settings: Compound concentration 1.0 uM
[14] = target: Maternal embryonic leucine zipper kinase (Homo sapiens) (UniProt Q14680); assay: MELK Kinase screen; settings: Compound concentration 1.0 uM

Measured: inhibition

Chain of Substance-K receptor (Homo sapiens) (P21452 whole entry): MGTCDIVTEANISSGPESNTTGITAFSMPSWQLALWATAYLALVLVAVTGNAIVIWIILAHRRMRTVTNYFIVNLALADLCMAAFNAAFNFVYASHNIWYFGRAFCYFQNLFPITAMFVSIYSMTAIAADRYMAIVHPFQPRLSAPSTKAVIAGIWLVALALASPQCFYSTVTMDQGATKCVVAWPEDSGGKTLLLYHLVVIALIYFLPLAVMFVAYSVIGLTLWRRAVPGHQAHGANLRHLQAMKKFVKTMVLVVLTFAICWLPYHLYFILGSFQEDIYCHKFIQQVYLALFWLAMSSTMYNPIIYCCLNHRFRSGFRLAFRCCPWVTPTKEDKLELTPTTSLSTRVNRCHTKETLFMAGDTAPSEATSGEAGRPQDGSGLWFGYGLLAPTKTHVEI
Chain of Glycogen synthase kinase-3 beta (Homo sapiens) (P49841 whole entry, looked up): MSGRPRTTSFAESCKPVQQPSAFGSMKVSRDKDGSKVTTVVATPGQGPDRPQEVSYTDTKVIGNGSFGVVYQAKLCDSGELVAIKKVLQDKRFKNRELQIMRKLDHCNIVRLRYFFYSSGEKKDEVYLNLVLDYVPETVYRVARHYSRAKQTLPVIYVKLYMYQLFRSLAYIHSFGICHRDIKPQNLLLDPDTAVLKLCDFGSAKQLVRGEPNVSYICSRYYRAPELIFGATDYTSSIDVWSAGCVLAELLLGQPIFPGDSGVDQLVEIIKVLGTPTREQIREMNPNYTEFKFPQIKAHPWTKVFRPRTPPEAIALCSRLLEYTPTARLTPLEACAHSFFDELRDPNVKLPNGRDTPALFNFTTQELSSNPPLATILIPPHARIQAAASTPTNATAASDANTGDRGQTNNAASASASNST
Chain of B2 bradykinin receptor (Homo sapiens) (P30411 whole entry): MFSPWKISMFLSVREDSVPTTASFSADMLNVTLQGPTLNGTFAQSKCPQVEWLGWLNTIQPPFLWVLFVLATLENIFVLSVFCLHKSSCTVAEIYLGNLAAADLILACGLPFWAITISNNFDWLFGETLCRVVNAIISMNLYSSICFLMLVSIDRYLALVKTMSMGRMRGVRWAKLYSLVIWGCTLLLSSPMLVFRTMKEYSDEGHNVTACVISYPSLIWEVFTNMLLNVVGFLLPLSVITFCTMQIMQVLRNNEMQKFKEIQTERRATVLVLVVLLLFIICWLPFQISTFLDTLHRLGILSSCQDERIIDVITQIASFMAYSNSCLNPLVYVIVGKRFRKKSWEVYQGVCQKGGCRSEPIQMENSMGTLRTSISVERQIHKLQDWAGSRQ
Chain of Mitogen-activated protein kinase 1 (Homo sapiens) (P28482 whole entry): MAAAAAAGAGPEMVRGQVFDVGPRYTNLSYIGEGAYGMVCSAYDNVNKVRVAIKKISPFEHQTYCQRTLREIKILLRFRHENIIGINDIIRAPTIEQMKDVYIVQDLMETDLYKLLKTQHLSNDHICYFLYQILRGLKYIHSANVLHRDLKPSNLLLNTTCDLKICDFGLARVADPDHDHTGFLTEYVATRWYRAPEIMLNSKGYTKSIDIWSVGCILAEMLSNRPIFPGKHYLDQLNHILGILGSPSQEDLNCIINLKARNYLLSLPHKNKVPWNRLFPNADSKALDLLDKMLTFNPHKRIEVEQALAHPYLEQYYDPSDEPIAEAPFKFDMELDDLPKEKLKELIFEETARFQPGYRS
Chain of Prostaglandin E2 receptor EP3 subtype (Homo sapiens) (P43115 whole entry): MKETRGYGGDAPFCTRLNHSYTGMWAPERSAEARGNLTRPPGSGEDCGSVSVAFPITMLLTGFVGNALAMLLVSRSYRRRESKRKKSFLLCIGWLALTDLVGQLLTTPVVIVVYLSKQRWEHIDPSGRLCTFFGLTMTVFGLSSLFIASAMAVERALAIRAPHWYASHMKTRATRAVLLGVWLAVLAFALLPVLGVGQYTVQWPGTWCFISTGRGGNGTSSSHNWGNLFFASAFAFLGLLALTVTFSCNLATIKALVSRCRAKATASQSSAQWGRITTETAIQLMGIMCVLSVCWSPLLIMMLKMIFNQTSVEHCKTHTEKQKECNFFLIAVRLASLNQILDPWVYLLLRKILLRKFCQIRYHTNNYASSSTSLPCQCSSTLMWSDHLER
Chain of Aurora kinase B (Homo sapiens) (Q96GD4 whole entry): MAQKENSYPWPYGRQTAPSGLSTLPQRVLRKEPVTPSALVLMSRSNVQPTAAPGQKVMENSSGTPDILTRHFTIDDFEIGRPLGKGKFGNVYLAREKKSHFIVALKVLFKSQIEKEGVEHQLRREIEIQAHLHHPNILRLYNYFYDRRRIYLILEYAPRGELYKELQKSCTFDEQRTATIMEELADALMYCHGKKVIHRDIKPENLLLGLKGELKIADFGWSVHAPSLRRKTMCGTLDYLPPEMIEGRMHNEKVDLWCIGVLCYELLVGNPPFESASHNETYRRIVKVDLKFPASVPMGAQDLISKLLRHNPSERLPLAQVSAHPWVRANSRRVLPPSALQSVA
Chain of SRSF protein kinase 3 (Homo sapiens) (Q9UPE1 whole entry): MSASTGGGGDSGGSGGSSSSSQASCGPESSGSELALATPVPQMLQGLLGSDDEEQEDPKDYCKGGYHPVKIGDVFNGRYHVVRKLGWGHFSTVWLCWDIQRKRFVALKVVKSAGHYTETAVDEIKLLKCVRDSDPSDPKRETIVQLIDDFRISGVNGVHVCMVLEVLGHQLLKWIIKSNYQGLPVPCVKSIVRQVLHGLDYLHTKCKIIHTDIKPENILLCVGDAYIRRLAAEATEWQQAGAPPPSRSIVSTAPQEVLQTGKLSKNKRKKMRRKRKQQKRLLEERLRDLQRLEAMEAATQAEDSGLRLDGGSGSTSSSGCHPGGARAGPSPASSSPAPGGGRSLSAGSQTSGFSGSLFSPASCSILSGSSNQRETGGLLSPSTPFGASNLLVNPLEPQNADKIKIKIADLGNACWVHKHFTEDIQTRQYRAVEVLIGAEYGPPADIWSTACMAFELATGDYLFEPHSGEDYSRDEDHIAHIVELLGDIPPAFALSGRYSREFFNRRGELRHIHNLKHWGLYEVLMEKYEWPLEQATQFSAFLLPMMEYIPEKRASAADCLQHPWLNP
Chain of Progesterone receptor (Homo sapiens) (P06401 whole entry): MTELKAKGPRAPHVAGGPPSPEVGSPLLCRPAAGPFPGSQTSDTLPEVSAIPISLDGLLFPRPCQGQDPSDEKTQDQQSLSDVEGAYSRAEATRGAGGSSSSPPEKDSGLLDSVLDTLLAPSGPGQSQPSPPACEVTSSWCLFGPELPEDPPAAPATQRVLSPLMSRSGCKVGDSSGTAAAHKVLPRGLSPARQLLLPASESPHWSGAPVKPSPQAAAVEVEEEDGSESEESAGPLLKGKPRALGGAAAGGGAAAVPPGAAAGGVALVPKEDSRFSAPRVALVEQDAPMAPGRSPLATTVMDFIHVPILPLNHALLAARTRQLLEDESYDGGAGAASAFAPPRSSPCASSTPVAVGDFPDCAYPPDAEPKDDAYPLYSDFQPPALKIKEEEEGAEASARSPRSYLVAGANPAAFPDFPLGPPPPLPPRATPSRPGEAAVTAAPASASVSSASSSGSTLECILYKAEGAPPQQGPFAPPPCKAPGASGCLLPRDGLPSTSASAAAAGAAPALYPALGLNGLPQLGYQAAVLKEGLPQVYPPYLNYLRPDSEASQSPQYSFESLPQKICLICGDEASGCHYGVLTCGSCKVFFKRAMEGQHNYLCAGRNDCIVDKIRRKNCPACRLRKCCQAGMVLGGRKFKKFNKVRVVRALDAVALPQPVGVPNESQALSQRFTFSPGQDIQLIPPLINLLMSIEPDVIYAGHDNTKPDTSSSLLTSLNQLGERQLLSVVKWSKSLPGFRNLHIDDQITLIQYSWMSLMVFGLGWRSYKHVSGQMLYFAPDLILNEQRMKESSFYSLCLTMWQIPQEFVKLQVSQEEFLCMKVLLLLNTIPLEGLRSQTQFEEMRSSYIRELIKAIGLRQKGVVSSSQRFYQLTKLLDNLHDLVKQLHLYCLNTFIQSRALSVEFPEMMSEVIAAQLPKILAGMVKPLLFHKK

C[C@@H]1CN(c2cc(-c3n[nH]c4ccc(OC5(C)CC5)cc34)ncn2)C[C@H](C)O1 [MLi-2]
inactive: [1] 1.23% | [2] -3.99% | [3] 7% | [4] 3.53% | [5] 30% | [6] -0.743% | [7] 11.9% | [8] -4% | [9] 2.23% | [10] -4.08% | [11] 27% | [12] 17.1% | [13] 16.2% | [14] 5.44%
